The values that follow come from US20180298010A1, “PRMT5 INHIBITORS AND USES THEREOF” (Epizyme, Inc., priority 2012, published 2018).

The experiment addresses T1, PRMT5/MEP50 (Homo sapiens, UniProt O14744).
T1 construct: Flag-PRMT5; 6His-MEP50
Description: PRMT5 Biochemical Assay (PRMT5/MEP50 enzyme assay on peptide substrate, 3H-SAM Flashplate). The text has this: General Materials. S-adenosylmethionine (SAM), S-adenosylhomocysteine (SAH), bicine, KCl, Tween20, dimethylsulfoxide (DMSO), bovine skin gelatin (BSG), and Tris(2-carboxyethyl)phosphine hydrochloride solution (TCEP) were purchased from Sigma-Aldrich at the highest level of purity possible. ^3H-SAM was purchase from American Radiolabeled Chemicals with a specific activity of 80 Ci/mmol. 384-well streptavidin Flashplates were purchased from PerkinElmer.
Substrates. Peptide representative of human histone H4 residues 1-15 was synthesized with a C-terminal linker-affinity tag motif and a C-terminal amide cap by 21st Century Biochemicals. The peptide was high high-perfomance liquid chromatography (HPLC) purified to greater than 95% purity and confirmed by liquid chromatography mass spectrometry (LC-MS). The sequence was Ac-[…][K-Biot]-amide (SEQ ID NO.:3).
Molecular Biology: Full-length human PRMT5 (NM_006109.3) transcript variant 1 clone was amplified from a fetal brain cDNA library, incorporating flanking 5′ sequence encoding a FLAG tag ([…]) (SEQ ID NO.:4) fused directly to Ala 2 of PRMT5. Full-length human MEP50 (NM_024102) clone was amplified from a human testis cDNA library incorporating a 5′ sequence encoding a 6-histidine tag (MHHHHHH) (SEQ ID NO.:5) fused directly to Arg 2 of MEP50. The amplified genes were sublconed into pENTR/D/TEV (Life Technologies) and subsequently transferred by Gateway™ attL×attR recombination to pDEST8 baculvirus expression vector (Life Technologies).
Protein Expression. Recombinant baculovirus and Baculovirus-Infected Insect Cells (BIIC) were generated according to Bac-to-Bac kit instructions (Life Technologies) and Wasilko, 2006, respectively. Protein over-expression was accomplished by infecting exponentially growing Spodoptera frugiperda (SF9) cell culture at 1.2×10^6cell/ml with a 5000 fold dilution of BIIC stock. Infections were carried out at 27° C. for 72 hours, harvested by centrifugation, and stored at −80° C. for purification.
Protein Purification. […] Flag-PRMT5/6His-MeP50 was eluted with 300 mM Imidazole in the same buffer. The purity of recovered protein was 87%. Reference: Wasilko, D. J. and S. E. Lee: “TIPS: titerless infected-cells preservation and scale-up” Bioprocess J., 5 (2006), pp. 29-32.
General Procedure for PRMT5/MEP50 Enzyme Assays on Peptide Substrates. The assays were all performed in a buffer consisting of 20 mM Bicine (pH=7.6), 1 mM TCEP, 0.005% BSG, and 0.002% Tween20, prepared on the day of use. Compounds in 100% DMSO (1 ul) were spotted into a polypropylene 384-well V-bottom plates (Greiner) using a Platemate Plus outfitted with a 384-channel head (Thermo Scientific). DMSO (1 ul) was added to Columns 11, 12, 23, 24, rows A-H for the maximum signal control and 1 ul of SAH, a known product and inhibitor of PRMT5/MEP50, was added to columns 11, 12, 23, 24, rows I-P for the minimum signal control. A cocktail (40 ul) containing the PRMT5/MEP50 enzyme and the peptide was added by Multidrop Combi (Thermo-Fisher). The compounds were allowed to incubate with PRMT5/MEP50 for 30 min at 25 degrees Celsius, then a cocktail (10 ul) containing ^3H-SAM was added to initiate the reaction (final volume=51 ul). The final concentrations of the components were as follows: PRMT5/MEP50 was 4 nM, ^3H-SAM was 75 nM, peptide was 40 nM, SAH in the minimum signal control wells was 100 uM, and the DMSO concentration was […]. The assays were stopped by the addition of non-radioactive SAM (10 ul) to a final concentration of 600 uM, which dilutes the ^3H-SAM to a level where its incorporation into the peptide substrate is no longer detectable. 50 ul of the reaction in the 384-well polypropylene plate was then transferred to a 384-well Flashplate and the biotinylated peptides were allowed to bind to the streptavidin surface for at least 1 hour before being washed three times with 0.1% Tween20 in a Biotek ELx405 plate washer. […]

pIC50: −log10 of the molar value.

T1 sequence (O14744 with tags, fused parts or gaps): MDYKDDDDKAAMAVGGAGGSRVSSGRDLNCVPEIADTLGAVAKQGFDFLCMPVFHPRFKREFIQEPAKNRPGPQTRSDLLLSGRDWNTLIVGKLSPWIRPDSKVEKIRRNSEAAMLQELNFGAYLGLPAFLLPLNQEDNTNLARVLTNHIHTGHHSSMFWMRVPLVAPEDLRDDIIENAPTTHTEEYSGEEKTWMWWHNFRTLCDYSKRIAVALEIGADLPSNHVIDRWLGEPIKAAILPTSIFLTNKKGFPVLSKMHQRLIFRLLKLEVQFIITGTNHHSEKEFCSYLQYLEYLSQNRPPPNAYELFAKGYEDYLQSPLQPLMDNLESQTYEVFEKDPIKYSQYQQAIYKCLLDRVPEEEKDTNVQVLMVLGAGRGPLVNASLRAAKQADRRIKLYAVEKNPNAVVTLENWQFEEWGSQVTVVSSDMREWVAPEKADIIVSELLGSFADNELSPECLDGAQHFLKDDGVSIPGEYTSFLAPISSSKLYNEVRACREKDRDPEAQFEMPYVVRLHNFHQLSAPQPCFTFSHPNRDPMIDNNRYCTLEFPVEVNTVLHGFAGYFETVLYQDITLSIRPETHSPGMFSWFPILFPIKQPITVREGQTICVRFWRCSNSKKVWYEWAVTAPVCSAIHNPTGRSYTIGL
T1 sequence (Q9BQA1 with tags, fused parts or gaps partner): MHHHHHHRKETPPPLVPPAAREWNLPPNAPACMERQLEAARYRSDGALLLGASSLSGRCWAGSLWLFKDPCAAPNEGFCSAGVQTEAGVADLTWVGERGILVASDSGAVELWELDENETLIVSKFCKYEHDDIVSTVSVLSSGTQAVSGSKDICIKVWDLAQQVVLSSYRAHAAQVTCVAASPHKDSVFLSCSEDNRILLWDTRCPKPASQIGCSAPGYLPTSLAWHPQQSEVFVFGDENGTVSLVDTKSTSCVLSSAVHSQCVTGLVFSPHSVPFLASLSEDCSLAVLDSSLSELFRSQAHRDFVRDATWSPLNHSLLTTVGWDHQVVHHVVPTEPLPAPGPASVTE

For `OC(COc1cccc(OCc2ccccc2)c1)CN1CCc2ccccc2C1` (stereo not shown) [Compound 20], the negative-log IC50 (pIC50) is 5.00 to 6.00.

As to `CC(=O)N1CCC(n2cnc3ccc(-c4cccc(OCC(O)CN5CCc6ccccc6C5)c4)cc32)CC1` (stereo not shown) [Compound 228, 1-(4-(6-(3-(3-(3,4-dihydroisoquinolin-2(1H)-yl)-2-hydroxypropoxy)phenyl)-1H-benzo[d]imidazol-1-yl)piperidin-1-yl)ethanone], the pIC50 is 6.00 to 7.00.

Regarding `OC(COc1cccc(-c2cccc3c2oc2ccccc23)c1)CN1CCc2ccccc2C1` (stereo not shown) [Compound 86, 1-(3-(dibenzo[b,d]furan-4-yl)phenoxy)-3-(3,4-dihydroisoquinolin-2(1H)-yl)propan-2-ol], the negative-log IC50 (pIC50) was 6.00 to 7.00.

Consider `CC(OCC(O)CN1CCc2ccccc2C1)c1cccnc1` (stereo not shown) [Compound 299], for which the negative-log IC50 (pIC50) was 4.40 to 5.00.

Consider `Cc1cccc2c1CCN(CC(O)COc1cccc(-c3ccc4ncn(C)c4c3)c1)C2` (stereo not shown) [Compound 213], for which the pIC50 is 5.00 to 6.00.

Regarding `CC(C)(C)OC(=O)N1CCC(OCC(O)CN2CCc3ccccc3C2)C1` (stereo not shown) [Compound 287], the negative logarithm of the IC50 (pIC50) was 5.00 to 6.00.

Consider `O=C(Cn1ccc2cnc(-c3cccc(OCC(O)CN4CCc5ccccc5C4)c3)nc21)N1CCCC1` (stereo not shown) [Compound 231], for which the pIC50 is 6.00 to 7.00.

For the molecule `OC(COC1CCCCCC1)CN1CCc2ccccc2C1` (stereo not shown) [Compound 309], the pIC50 is 5.00 to 6.00.

Take `N#Cc1ccc(-c2cccc(OCC(O)CN3CCc4ccccc4C3)c2)cc1` (stereo not shown) [Compound 94]: the pIC50 is 6.00 to 7.00.

On to `COc1cccc2c1CN(CC(O)COc1cccc(CNC3CCCC3)c1)CC2` (stereo not shown) [Compound 29], for which the pIC50 was 4.40 to 5.00.

With `Cn1cnc2cc(-c3cc(NCC(O)CN4CCc5ccccc5C4)n[nH]3)ccc21` (stereo not shown) [Compound 272, 1-(3,4-dihydroisoquinolin-2(1H)-yl)-3-((5-(1-methyl-1H-benzo[d]imidazol-5-yl)-1H-pyrazol-3-yl)amino)propan-2-ol], the pIC50 was 6.00 to 7.00.

`OC(COc1cccc(-c2ccc3nc[nH]c3c2)c1)CN1CCc2ccccc2C1` (stereo not shown) [Compound 83]: the pIC50 is 6.00 to 7.00.

On to `Cc1nn(-c2ccccc2)c(C)c1COCC(O)CN1CCc2ccccc2C1` (stereo not shown) [Compound 28], for which the pIC50 is 5.00 to 6.00.

With `OC(COc1cccc(-c2cccnc2)c1)CN1CCc2ccccc2C1` (stereo not shown) [Compound 40], the negative-log IC50 (pIC50) was 5.00 to 6.00.

As to `CC(C)n1ccc(-c2ccc(OCC(O)CN3CCc4ccccc4C3)cc2)n1` (stereo not shown) [Compound 27], the negative logarithm of the IC50 (pIC50) is 5.00 to 6.00.

For the molecule `Cn1ncc2ccc(-c3cc(NCC(O)CN4CCc5ccccc5C4)ncn3)cc21` (stereo not shown) [Compound 205], the pIC50 is 6.00 to 7.00.

In the case of `CN(CC(O)CN1CCc2ccccc2C1)c1cccc(C(=O)NC2CCOCC2)c1` (stereo not shown) [Compound 99], the pIC50 was 4.40 to 5.00.

In the case of `OC(COc1ccc(OCc2ccccc2)cc1)CN1CCc2ccccc2C1` (stereo not shown) [Compound 19], the negative logarithm of the IC50 (pIC50) was 5.00 to 6.00.

As for `OC(COc1cccc(-c2ccc(C(F)(F)F)cc2Cl)c1)CN1CCc2ccccc2C1` (stereo not shown) [Compound 127], the pIC50 was 6.00 to 7.00.

On to `OC(COc1cccc(-c2cc(Cl)cc(C(F)(F)F)c2)c1)CN1CCc2ccccc2C1` (stereo not shown) [Compound 128], for which the pIC50 was 5.00 to 6.00.

On to `CN(C)c1ccc(-c2cccc(OCC(O)CN3CCc4ccccc4C3)c2)cc1` (stereo not shown) [Compound 151], for which the pIC50 is 6.00 to 7.00.

For `Cn1ncc2c1CN(c1cccc(OCC(O)CN3CCc4ccccc4C3)c1)CC2` (stereo not shown) [Compound 216, 1-(3,4-dihydroisoquinolin-2(1H)-yl)-3-(3-(1-methyl-4,5-dihydro-1H-pyrazolo[3,4-c]pyridin-6(7H)-yl)phenoxy)propan-2-ol], the pIC50 is 6.00 to 7.00.

Regarding `Oc1ccc(-c2cccc(OCC(O)CN3CCc4ccccc4C3)c2)cc1F` (stereo not shown) [Compound 70], the negative logarithm of the IC50 (pIC50) was 5.00 to 6.00.

`OC(COc1ccccc1N1CCNCC1)CN1CCc2ccccc2C1` (stereo not shown) [Compound 7]: the pIC50 is 4.40 to 5.00.

In the case of `COc1ccc(Cn2cnc3ccc(-c4cccc(OCC(O)CN5CCc6ccccc6C5)c4)cc32)cc1` (stereo not shown) [Compound 82, 1-(3,4-dihydroisoquinolin-2(1H)-yl)-3-(3-(1-(4-methoxybenzyl)-1H-benzo[d]imidazol-6-yl)phenoxy)propan-2-ol], the negative-log IC50 (pIC50) was 6.00 to 7.00.

Take `O=C(Cn1ccc2cnc(-c3cccc(OCC(O)CN4CCc5ccccc5C4)c3)nc21)N1CCOCC1` (stereo not shown) [Compound 222]: the negative logarithm of the IC50 (pIC50) was 6.00 to 7.00.

For the molecule `CC(=O)N1CCC(Nc2cc(CNCC(O)CN3CCc4ccccc4C3)ccn2)CC1` (stereo not shown) [Compound 313], the pIC50 is less than 5.00.

For `OC(COc1ccccc1C1CCCCC1)CN1CCc2ccccc2C1` (stereo not shown) [Compound 8], the negative logarithm of the IC50 (pIC50) is 5.00 to 6.00.

As for `OC(COc1cccc(CNc2cc[nH]n2)c1)CN1CCc2ccccc2C1` (stereo not shown) [Compound 6, 1-(3-(((1H-pyrazol-3-yl)amino)methyl)phenoxy)-3-(3,4-dihydroisoquinolin-2(1H)-yl)propan-2-ol], the pIC50 was 6.00 to 7.00.

As to `COc1ccc(-c2cccc(OCC(O)CN3CCc4ccccc4C3)c2)c(C)c1` (stereo not shown) [Compound 90], the negative logarithm of the IC50 (pIC50) is 6.00 to 7.00.

With `OC(COc1cccc(-c2ccc3c(c2)OCCO3)c1)CN1CCc2ccccc2C1` (stereo not shown) [Compound 85, 1-(3-(2,3-dihydrobenzo[b][1,4]dioxin-6-yl)phenoxy)-3-(3,4-dihydroisoquinolin-2(1H)-yl)propan-2-ol], the pIC50 is 6.00 to 7.00.

`Cn1cnc2ccc(-c3ccnc(NCC(O)CN4CCc5ccccc5C4)n3)cc21` (stereo not shown) [Compound 119]: the negative-log IC50 (pIC50) was 6.00 to 7.00.

On to `OC(COc1ccc(C2CCNCC2)cc1)CN1CCc2ccccc2C1` (stereo not shown) [Compound 25], for which the negative logarithm of the IC50 (pIC50) is 5.00 to 6.00.

Take `N#CCc1cccc(-c2cccc(OCC(O)CN3CCc4ccccc4C3)c2)c1` (stereo not shown) [Compound 111]: the negative-log IC50 (pIC50) is 6.00 to 7.00.

With `CC(C)(C)OCc1cccc(-c2cccc(OCC(O)CN3CCc4ccccc4C3)c2)c1` (stereo not shown) [Compound 150], the negative-log IC50 (pIC50) was 6.00 to 7.00.

As to `O=C(Nc1cccc(OCC(O)CN2CCc3ccccc3C2)c1)c1ccnnc1` (stereo not shown) [Compound 184], the negative-log IC50 (pIC50) was 5.00 to 6.00.

For the molecule `OC(COc1cccc(-c2cnc3ccccc3c2)c1)CN1CCc2ccccc2C1` (stereo not shown) [Compound 89, 1-(3,4-dihydroisoquinolin-2(1H)-yl)-3-(3-(quinolin-3-yl)phenoxy)propan-2-ol], the negative-log IC50 (pIC50) is 6.00 to 7.00.

Turning to `OC(COC1CCN(Cc2ccccc2)CC1)CN1CCc2ccccc2C1` (stereo not shown) [Compound 21], the pIC50 was 5.00 to 6.00.

On to `OC(COc1cccc(CNC2CCOCC2)c1)CN1CCc2ccccc2C1` (stereo not shown) [Compound 5, 1-(3,4-dihydroisoquinolin-2(1H)-yl)-3-(3-(((tetrahydro-2H-pyran-4-yl)amino)methyl)phenoxy)propan-2-ol], for which the pIC50 is 6.00 to 7.00.

On to `COc1cccc(-c2cccc(OCC(O)CN3CCc4ccccc4C3)c2)c1` (stereo not shown) [Compound 74], for which the pIC50 is 6.00 to 7.00.

For the molecule `OC(COC1CCOCC1)CN1CCc2ccccc2C1` (stereo not shown) [Compound 310], the pIC50 is 4.40 to 5.00.

`OC(COc1cccc(N2CCc3[nH]nc(-c4ccccc4)c3C2)c1)CN1CCc2ccccc2C1` (stereo not shown) [Compound 194]: the pIC50 is 5.00 to 6.00.

As to `OC(COc1cccc(-c2ccc(F)cc2)c1)CN1CCc2ccccc2C1` (stereo not shown) [Compound 77], the pIC50 was 5.00 to 6.00.

For the molecule `O=C(Nc1cccc(OCC(O)CN2CCc3ccccc3C2)c1)c1cncnc1` (stereo not shown) [Compound 161], the pIC50 was 5.00 to 6.00.

For `Cn1cnc2cc(-c3cccc(OCC(O)CN4CCc5ccccc5C4)c3)ccc21` (stereo not shown) [Compound 60, 1-(3,4-dihydroisoquinolin-2(1H)-yl)-3-(3-(1-methyl-1H-benzo[d]imidazol-5-yl)phenoxy)propan-2-ol], the negative logarithm of the IC50 (pIC50) was 6.00 to 7.00.

Take `Cn1cncc1C(=O)Nc1cccc(OCC(O)CN2CCc3ccccc3C2)c1` (stereo not shown) [Compound 195]: the pIC50 was 5.00 to 6.00.
